{
  "source": "paper PMC9225715",
  "about": "“Development of PD3 and PD3-B for PDEδ inhibition to modulate KRAS activity” (Journal of Enzyme Inhibition and Medicinal Chemistry, 2022)",
  "molecular_target": "T1, PDEδ (Homo sapiens, UniProt O43924)",
  "T1 construct": "made in house; host or cells: E. coli BL21(DE3)",
  "T1 sequence (O43924 whole entry)": "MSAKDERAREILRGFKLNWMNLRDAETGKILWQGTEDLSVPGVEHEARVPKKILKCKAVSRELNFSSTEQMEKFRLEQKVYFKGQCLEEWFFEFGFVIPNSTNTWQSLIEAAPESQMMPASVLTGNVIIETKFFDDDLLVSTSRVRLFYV",
  "experiment": "Affinity pull-down experiment with bacterial lysate overexpressing PDEδ",
  "assay_type": "binding",
  "conditions": "100 µM PD3-B on NeutrAvidin resin, bacterial lysate 150 µg, DMSO control",
  "method": "We subsequently investigated whether PD3-B (5) specifically identifies PDEδ in the complex proteome of bacterial lysate using an affinity pull-down experiment (Figure 5). 100 µM PD3-B (5) was initially incubated with NeutrAvidin resin before incubation with bacterial lysate (150 µg) overexpressing PDEδ. For elution of the bound proteins, an elution buffer (2% SDS in PBS) was added to the resin and gently eluted at room temperature due to the noncovalent interaction between PD3-B (5) and the target protein PDEδ. The eluted samples were subjected to SDS–PAGE (18% polyacrylamide gel), and then the gels were stained with colloidal Coomassie brilliant blue solution to visualise the bound proteins. DMSO was used as a negative control. […] In addition, the intensity of the PDEδ band increased depending on the concentration of PD3-B (5) (Figure 5(B)).\nFigure 5. Affinity pull-down assay of bacterial lysate (PDEδ overexpressed) with PD3-B. NeutrAvidin resin was incubated with PD3-B (100 μM) followed by bacterial lysate (150 μg) in PBS buffer. Then, bound proteins were eluted by adding elution buffer (2% SDS in PBS) at room temperature. The eluted samples were subjected to SDS–PAGE (18% polyacrylamide gel). The gels were stained with colloidal Coomassie brilliant blue solution. (A) Colloidal CBB staining of SDS–PAGE gel. Lys: bacterial lysate, FT: flow through in step 1. […]",
  "data": [
    {"smiles": "Cc1ccc(-c2nc3ccccc3c3c(-c4cn(CCOCCOCCOCCNC(=O)CCCC[C@H]5SC[C@@H]6NC(=O)N[C@@H]65)nn4)c4ccccn4c23)cc1", "note": "[PD3-B, 5-((3aS,4R,6aR)-2-oxohexahydro-1H-thieno[3,4-d]imidazol-4-yl)-N-(2–(2–(2-(2-(4–(6-(p-tolyl)indolizino[3,2-c]quinolin-12-yl)-1H-1,2,3-triazol-1-yl)ethoxy)ethoxy)ethoxy)ethyl)pentanamide]", "values": [
      {"measurement": "Pull down of PDEδ", "result": "PDEδ (20 kDa) was only detected in PD3-B (5)"}
    ]}
  ]
}
